One block for each compound: values may come before it. Where a SMILES comes first, the peptide text is derived from it. [ ]: non-standard residue; d: D form. Tyr(3-I) = N[C@@H](Cc1ccc(O)c(I)c1)C(=O)O
What was measured:
[1] = biological target: T1, extracellular domain of human PDGFRβ (Homo sapiens, UniProt P09619); format: binding; details: pH 7.4
T1 construct: The extracellular domain of PDGFRβ was recombinantly synthesized using the Flp-In system; Fc (Fcγ from pSEC-EGP-2-Fcγ vector) (C); made in house; host or cells: Flp-In-293 human embryonic kidney cells
T1 sequence (P09619 33-532 limits assumed): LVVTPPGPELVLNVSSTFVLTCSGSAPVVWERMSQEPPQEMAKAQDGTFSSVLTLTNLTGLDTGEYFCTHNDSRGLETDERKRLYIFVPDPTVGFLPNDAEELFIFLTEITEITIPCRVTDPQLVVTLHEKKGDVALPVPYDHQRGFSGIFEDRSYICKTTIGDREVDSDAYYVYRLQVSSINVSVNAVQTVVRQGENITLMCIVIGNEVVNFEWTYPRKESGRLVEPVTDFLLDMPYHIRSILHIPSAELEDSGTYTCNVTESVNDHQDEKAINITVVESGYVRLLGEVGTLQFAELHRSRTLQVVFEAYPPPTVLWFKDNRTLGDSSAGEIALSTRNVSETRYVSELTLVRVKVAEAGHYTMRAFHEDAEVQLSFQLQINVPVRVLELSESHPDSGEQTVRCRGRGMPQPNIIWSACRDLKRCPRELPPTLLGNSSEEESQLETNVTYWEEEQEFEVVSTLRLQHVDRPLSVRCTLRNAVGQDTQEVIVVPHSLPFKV
Procedure: Binding of ^125I-labeled PDGFR-P1 was investigated on immobilized extracellular domain of human PDGFRβ, EGFR, and FGFR. The target proteins were incubated at a concentration of 25 nM in 96-well Maxisorp^TM plates (Nunc GmbH & Co. KG, Germany) for 24 h and the plates were washed thrice with 100 μl PBS pH 7.4. ^125I-labeled PDGFR-P1 was incubated with the target in 100 μl PBS pH 7.4 for 60 min. The unbound activity was removed by washing with 300 μl ice-cold PBS pH 7.4. Bound radioligand was determined through degradation with 100 μl NaOH 0.3 M and radioactivity measurement. Radioligand binding was calculated as percentage applied dose.

BxPC3 cells = format: binding, human; details: 24 h
Procedure: (§1) Three hundred thousand BxPC3, MCF7, PDGFRβ-tr-HEK, CaIX-tr-HEK, or HEK293wt cells were cultivated in six-well plates at 37°C for 24 h. Cells were blocked with RPMI 1640 containing 1% milk powder and the medium was replaced with 1 ml fresh medium (without FCS) containing 0.5–1.5 × 10^6 cpm ^125I-labeled peptide. After incubation at 37°C for various time periods (10 min to 6 h), the medium was removed and the cells were washed with PBS. Subsequently, cell lysis was performed with 0.5 ml NaOH 0.3 M and the bound radioactivity was measured with a γ-counter and calculated as percentage applied dose per 10^6 cells. Specific binding was determined through co-incubation of the radioligand with the unlabeled PDGFR-P1 peptide at various concentrations (10^−4 to 10^−10 M). A dodecapeptide identified with phage display by panning against the extracellular domain of human carbonic anhydrase IX (CaIX-P1) as well as a derivative of a dodecapeptide identified with phage display on prostate carcinoma cells (DUP-1–9) were used as negative control competitors.

PDGFR-tr-HEK cells = experiment: In vitro binding kinetics on PDGFRβ-transfected HEK293 cells; parameters: species or system human; details: kinetic studies, vs HEK293wt and CaIX-tr-HEK cells, 37°C, serum-free medium, p < 0.05
Procedure: as §1

Stability in human serum = format: in vitro ADME; details: 37°C, HPLC analysis
Procedure: The stability of PDGFR-P1 was investigated in human serum. ^125I-labeled peptide was incubated at 37°C in human serum. At time points varying from 5 min to 20 h, aliquots were taken, mixed with equal volume acetonitrile, to precipitate serum proteins and centrifuged for 5 min at 13,000 rpm. Serum degradation products were determined by HPLC analysis of the supernatant.

in vivo = experiment: in vivo; parameters: species or system Balb/c nu/nu mice; details: female, Balb/c nu/nu, mouse, iv, 1 MBq, total radioactivity; for tissue to tissue ratio at 0.25 h: Tumor-to-organ ratio
Procedure: (§2) Organ distribution studies were carried out in 9-week-old female Balb/c nu/nu mice (Charles River WIGA), carrying subcutaneously transplanted human pancreatic cancer BxPC3 tumors. Tumor implantation was performed through injection of a cell suspension (4 × 10^6 cells in OPTI-MEM) (Gibco, Invitrogen Life Technologies) into the mouse trunk. After the tumors were grown to a size of approximately 1.0 cm^3, 1 MBq of ^131I-labeled PDGFR-P1 was injected into the tail vein, and at 15 min p.i. the animals were euthanized. Tumor, blood, and healthy tissues were removed, weighed, and measured with a γ-counter (LB […]; Berthold Technologies). Organ uptake calculation was performed as percentage injected dose per gram tissue (% ID/g). To avoid bias due to blood background radioactivity, uptake in blood-free organs was determined with perfusion experiments. Within these experiments, blood was removed through a catheter in the ascending aorta of the anesthesized animal and perfusion with approximately 25 ml 0.9% NaCl was performed via a cut in the animal liver. After perfusion, samples of tumor and organs were removed and measured as described. All animal experiments were carried out in conformity with the German and European laws for animal protection.

BxPC3 tumors = experiment: in vivo; parameters: species or system Balb/c nu/nu mice; details: female, Balb/c nu/nu, mouse, iv, 1 MBq, 0.25 h
Procedure: as §2

human serum = details: 37°C, up to 20 h

Binding of the radioligand (percentage applied dose) [1]: about 18%
IC50 (BxPC3 cells): 1.4 µM
Compound: CC[C@H](C)[C@H](N)C(=O)N1CCC[C@H]1C(=O)N[C@@H](CC(C)C)C(=O)N1CCC[C@H]1C(=O)N1CCC[C@H]1C(=O)N1CCC[C@H]1C(=O)N[C@@H](CO)C(=O)N[C@@H](CCCNC(=N)N)C(=O)N1CCC[C@H]1C(=O)N[C@@H](Cc1ccccc1)C(=O)N[C@@H](Cc1ccccc1)C(=O)N[C@@H](CCCCN)C(=O)N[C@@H](Cc1ccc(O)cc1)C(N)=O [PDGFR-P1] (H-IPLPPPSRPFFKY-NH2)

half-life (Stability in human serum; aliquots 5 min to 20 h, acetonitrile precipitation): 4 min
Compound: CC[C@H](C)[C@H](N)C(=O)N1CCC[C@H]1C(=O)N[C@@H](CC(C)C)C(=O)N1CCC[C@H]1C(=O)N1CCC[C@H]1C(=O)N1CCC[C@H]1C(=O)N[C@@H](CO)C(=O)N[C@@H](CCCNC(=N)N)C(=O)N1CCC[C@H]1C(=O)N[C@@H](Cc1ccccc1)C(=O)N[C@@H](Cc1ccccc1)C(=O)N[C@@H](CCCCN)C(=O)N[C@@H](Cc1ccc(O)c(I)c1)C(N)=O [^125I-labeled PDGFR-P1] (H-IPLPPPSRPFFK[Tyr(3-I)]-NH2; N-terminus assumed)
Binding on PDGFR-tr-HEK cells compared to negative controls (PDGFR-tr-HEK cells): significantly increased binding
Degradation product analysis (Stability in human serum): cleavage of the C-terminal tyrosine over time

tissue uptake at 0.25 h (in vivo; Activity concentration in blood): 5.4 %ID/g
tissue uptake at 0.25 h (in vivo; Activity concentration in kidney): 10.6 %ID/g
tissue uptake at 0.25 h (in vivo; Tumor accumulation): 3.2 %ID/g
tissue to tissue ratio at 0.25 h (in vivo; Brain): 8.7
tissue to tissue ratio at 0.25 h (in vivo; Intestinum): 1.43
tissue to tissue ratio at 0.25 h (in vivo; Kidney): 0.299
tissue to tissue ratio at 0.25 h (in vivo; Muscle): 2.15
tissue to tissue ratio at 0.25 h (in vivo; Spleen): 1.42
Tumor-to-organ ratio, Brain (BxPC3 tumors): 9.083
Tumor-to-organ ratio, Intestinum (BxPC3 tumors): 1.321
Tumor-to-organ ratio, Kidney (BxPC3 tumors): 0.379
Tumor-to-organ ratio, Muscle (BxPC3 tumors): 2.530
Tumor-to-organ ratio, Spleen (BxPC3 tumors): 1.601
Compound: CC[C@H](C)[C@H](N)C(=O)N1CCC[C@H]1C(=O)N[C@@H](CC(C)C)C(=O)N1CCC[C@H]1C(=O)N1CCC[C@H]1C(=O)N1CCC[C@H]1C(=O)N[C@@H](CO)C(=O)N[C@@H](CCCNC(=N)N)C(=O)N1CCC[C@H]1C(=O)N[C@@H](Cc1ccccc1)C(=O)N[C@@H](Cc1ccccc1)C(=O)N[C@@H](CCCCN)C(=O)N[C@@H](Cc1ccc(O)c(I)c1)C(N)=O [^131I-labeled PDGFR-P1] (H-IPLPPPSRPFFK[Tyr(3-I)]-NH2; N-terminus assumed)

cleaved bond (human serum): K-Y
fragment found (human serum): Y-OH
Compound: IPLPPPSRPFFKY-NH2

Source: article PMC3591530 (Molecular Imaging and Biology, 2012)
